This passage reports cytotoxicity results from ChEMBL document CHEMBL3507680, “University of Dundee, Gates Library screen for HepG2 cell viability”.

SMILES strings stand for the structures.

The data set in a line: Human HepG2 cell viability assay in 384 well format. Type of data set: toxicity, cell-based. Also on record: dose 125 nL, time 70.5 hour; concentration not given beside the values. Conditions: HepG2 cells, read-out: Inhibition.
Consider `Cc1ccccc1OC1CCN(CC(=O)Nc2ccn(C)n2)CC1`, for which the cytotoxicity at 70.5 h is -7.79%.

Turning to `CCC(C)(NCc1ncc(C(C)C)o1)c1nccs1` (centres undefined), the cytotoxicity at 70.5 h is 1.37%.

On to `c1ccc(CN2CCOC[C@H]2c2nc(-c3ccncc3)c[nH]2)nc1`, for which the cytotoxicity at 70.5 h amounted to 1.25%.

For `CCn1cc(S(=O)(=O)NC(CO)Cc2ccccc2)cn1` (centres undefined), the cytotoxicity at 70.5 h was -7.27%.

With `c1ccc2c(c1)CCC21CN(CCc2ccncc2)CCO1` (centres undefined), the cytotoxicity at 70.5 h is -4.57%.

For the compound `CC(=O)N1CCN(c2nc3c(cnn3C(C)(C)C)c(=O)[nH]2)CC1`, the cytotoxicity at 70.5 h was -1.03%.

For the compound `Cc1nc(C)c(S(=O)(=O)NC(=O)c2sccc2C)s1`, the cytotoxicity at 70.5 h was -14.3%.

Consider `CCc1nnsc1C(=O)N(C)Cc1ccc(C)o1`, for which the cytotoxicity at 70.5 h is -0.808%.

With `CCOCCN1CCN(CC(O)c2ccc(C(F)(F)F)cc2)CC1` (centres undefined), the cytotoxicity at 70.5 h was -0.521%.

As for `O=C(NC1CCC1)C1=NOC2(CCN(Cc3ccccc3)C2)C1` (centres undefined), the cytotoxicity at 70.5 h was -10.6%.

In the case of `CS(=O)(=O)c1cccc(C(N)c2ccccc2)c1` (centres undefined), the cytotoxicity at 70.5 h was -1.27%.

For the compound `O=c1cc(N2CCOCC2)cnn1CCc1ccc(F)cc1`, the cytotoxicity at 70.5 h is -1.15%.

As to `Cc1noc(C)c1CN(C)CC1CC(C2CCCCC2)=NO1` (centres undefined), the cytotoxicity at 70.5 h was -2.46%.

As for `CCn1c(C)nnc1CN(C)C1CCN(Cc2c(C)noc2C)C1` (centres undefined), the cytotoxicity at 70.5 h is -4.05%.

For `CN(C)C(=O)N1CC[C@@H](c2ccc3ccccc3c2)[C@H](O)C1`, the cytotoxicity at 70.5 h amounted to 6.36%.

`COCCN1C[C@H]2[C@@H](C1)N(C(=O)c1cccs1)CC[C@H]2OC`: the cytotoxicity at 70.5 h was -21.9%.

On to `CN1C[C@@H](n2cnc(-c3ccccc3)c2-c2c[nH]cn2)C[C@H]1C(=O)O`, for which the cytotoxicity at 70.5 h is -7.26%.

Take `O=C(Nc1ccccc1F)C1CN(C(=O)c2ccc3c(c2)OCO3)C1`: the cytotoxicity at 70.5 h was -11.5%.

Take `CCc1nc(NC2CCCN(C(=O)C3CC3)C2)c2cnn(C)c2n1` (centres undefined): the cytotoxicity at 70.5 h is -15.4%.

In the case of `O=C(c1nn(-c2ccccc2F)cc1O)N1CCCCC1`, the cytotoxicity at 70.5 h is -7.27%.

Take `Cc1nc(NC(=O)N2CCCC(C(C)(C)O)C2)nn1C` (centres undefined): the cytotoxicity at 70.5 h was -6.42%.

As to `O=C(NCC1CCS(=O)(=O)C1)Nc1ccccn1` (centres undefined), the cytotoxicity at 70.5 h is 3.81%.

Consider `NC(=O)C1CN(C(=O)Nc2ccccc2SC2CCCC2)CCO1` (centres undefined), for which the cytotoxicity at 70.5 h is -3.34%.

Consider `Cn1ccnc1CN1C[C@H]2CN(S(C)(=O)=O)CCN2C1=O`, for which the cytotoxicity at 70.5 h was -0.342%.

With `COc1ccccc1N(C)S(=O)(=O)c1cc(C(=O)O)cs1`, the cytotoxicity at 70.5 h was -4.98%.

`Cc1cc(N(C)C)nc(C2COCCN2Cc2cc(C)on2)n1` (centres undefined): the cytotoxicity at 70.5 h was -7.49%.

`CC(C)S(=O)(=O)N1C[C@@H](c2ccccc2)[C@H]2[C@H]1CCCCCN2C`: the cytotoxicity at 70.5 h was -5.45%.

In the case of `NC1(CN2CCCCC2)CCCCC1`, the cytotoxicity at 70.5 h is -3.49%.

As for `CCOc1cc(C)nc(N2CCN(C(=O)c3ccnn3C)CC2)n1`, the cytotoxicity at 70.5 h is -3.99%.

As for `O=C(O)c1ccc2c(c1)C1(CCCCC1)CN2C(=O)c1cccc(F)c1`, the cytotoxicity at 70.5 h is 8.94%.

Turning to `CC(C)c1nc2c(n1C)CCN(Cc1nc(-c3cccnc3)no1)C2`, the cytotoxicity at 70.5 h was -11.9%.

As to `CC(Cn1cccn1)NCc1csc(COc2ccc(F)cc2)n1` (centres undefined), the cytotoxicity at 70.5 h was -1.54%.

As to `O=C(NCc1nn(-c2ccccc2)c2c1CCC2)N1CCCC(O)C1` (centres undefined), the cytotoxicity at 70.5 h was -12.1%.

As for `Cc1cc(C)n(-c2cncc(NCCNC(=O)CC3CCCC3)n2)n1`, the cytotoxicity at 70.5 h is -4.52%.

For the compound `CC(=O)NCCc1ccc(C(=O)N2CCCC2c2cnn(C)c2)cc1` (centres undefined), the cytotoxicity at 70.5 h is 15.1%.

As to `Cc1n[nH]c(C)c1S(=O)(=O)N(C)Cc1nn(C)c(Cl)c1Cl`, the cytotoxicity at 70.5 h came out at 22.3%.

As for `Cn1ccnc1C(NCc1ccccc1)c1ccc(F)cc1` (centres undefined), the cytotoxicity at 70.5 h was -2.68%.

`O=C(CSc1ncccn1)N1C[C@H]2CC[C@@H]1CN(Cc1ccncc1)C2`: the cytotoxicity at 70.5 h is -0.441%.

For `O=C(c1ccncc1)N1CCC2(CC1)CCN(C(=O)c1cccnc1)C2`, the cytotoxicity at 70.5 h was -7.65%.

For the compound `COCc1nccc(C2CCCN(Cc3ccccc3C#N)C2)n1` (centres undefined), the cytotoxicity at 70.5 h was -6.99%.

Consider `CCOC(=O)N(C)C1CCN(Cc2ccsc2)CC1`, for which the cytotoxicity at 70.5 h was found to be 19.3%.

On to `Cc1cccc(CSc2ncc(Cl)c(C(=O)O)n2)c1`, for which the cytotoxicity at 70.5 h was -11%.

For `Cc1csc(CN(C)CCOc2ccccc2)n1`, the cytotoxicity at 70.5 h is 20.8%.

Regarding `COC(C(=O)N1CCCN(Cc2cscn2)CC1)c1ccccc1` (centres undefined), the cytotoxicity at 70.5 h came out at 12.8%.

For `COc1cccc(CC(=O)N2CCc3ncnc(NC(C)C)c3CC2)c1`, the cytotoxicity at 70.5 h was -14%.

Turning to `O=C(NCC(O)c1ccsc1)Nc1cccs1` (centres undefined), the cytotoxicity at 70.5 h was determined as 25.4%.

For the compound `COCC(=O)N1CCN(C(C)=O)C[C@@H]1C(=O)OC`, the cytotoxicity at 70.5 h came out at 12.2%.

For `CCc1nnc(CN(C)C(=O)C2CC(=O)N(C3CC3)C2)o1` (centres undefined), the cytotoxicity at 70.5 h is -6.39%.

Regarding `CSCCC(NC(=O)c1ccccc1)C(=O)N(C)Cc1ccsc1` (centres undefined), the cytotoxicity at 70.5 h is -7%.

In the case of `CC(C)Nc1nc2c(c(N(C)C)n1)CCN(Cc1nccn1C)CC2`, the cytotoxicity at 70.5 h was 10.1%.

For the compound `COc1ccc(CN(Cc2cn(C)nc2C)CC2CCCO2)c(OC)c1` (centres undefined), the cytotoxicity at 70.5 h is -2.41%.

For the compound `N#Cc1cc(Cl)ccc1N1CCOC(C(N)=O)C1` (centres undefined), the cytotoxicity at 70.5 h is -0.791%.

For the compound `Cc1nn(CCO)c(C)c1CNC1CCC(C)(C)c2ccccc21` (centres undefined), the cytotoxicity at 70.5 h was -5.72%.

With `CC(=O)N(Cc1ncc(C(C)C)o1)C1CCN(CCC#N)C1` (centres undefined), the cytotoxicity at 70.5 h was -7%.

As to `CC(C)=CCN1C[C@H]2CC[C@@H]1CN(C(=O)CSc1ccncc1)C2`, the cytotoxicity at 70.5 h was -0.143%.

Regarding `CN(C)c1ncc(CNC(=O)Nc2ccc(C(F)(F)F)cc2)n1C`, the cytotoxicity at 70.5 h is -2.76%.

Regarding `N#Cc1cnc(NC2CCN(C(=O)C3CC3)CC2)c(Cl)c1`, the cytotoxicity at 70.5 h is 0.703%.

Take `CC(C)(O)CN1CCN(C(=O)c2sccc2C#N)CC1`: the cytotoxicity at 70.5 h is -3.64%.

`c1cncc(-c2ccnn2CN2CCOCC2)c1`: the cytotoxicity at 70.5 h amounted to 0.876%.

With `O=C(Cc1ccccc1F)N1CCN(C(=O)c2cccc(F)c2)CC1`, the cytotoxicity at 70.5 h was found to be 38%.

Take `CC(C)(C)c1nnc(CN2CCCC(Cn3cncn3)C2)o1` (centres undefined): the cytotoxicity at 70.5 h is -5.42%.

For `CNc1cncc(C2CCCN2C(=O)c2ccc3nc(C)[nH]c3c2)n1` (centres undefined), the cytotoxicity at 70.5 h is -3.29%.

On to `O=C(NCCNC(=O)C1CCN(c2ncccn2)CC1)c1ccoc1`, for which the cytotoxicity at 70.5 h stood at 6.55%.

As for `CC(=O)Nc1nc(C)c(S(=O)(=O)NCCc2cccnc2)s1`, the cytotoxicity at 70.5 h stood at 1.62%.

Turning to `COc1ccc(CCN2CC(NCc3ncc[nH]3)CC2=O)cc1` (centres undefined), the cytotoxicity at 70.5 h is -7.01%.

In the case of `Cc1ccnc(N2CCN(C3CCS(=O)(=O)C3)CC2)n1` (centres undefined), the cytotoxicity at 70.5 h is -13.6%.

For `COCC1Cn2nnc(-c3cnn(C)c3)c2CN1Cc1ccsc1` (centres undefined), the cytotoxicity at 70.5 h is -9.05%.

In the case of `Cn1ccnc1CN1CCN(Cc2cc(C#N)ccc2F)CC1`, the cytotoxicity at 70.5 h was -11.4%.

Regarding `CSCC(=O)N1C[C@H](c2ccc(C)o2)[C@@H](N)C1`, the cytotoxicity at 70.5 h is -3.37%.

On to `O=C(Cn1cc(Cl)cn1)Nc1ccc2c(c1)OCO2`, for which the cytotoxicity at 70.5 h is -2%.

Consider `O=C(C(c1ccc(F)cc1)N1CCCCC1)N1CCn2cncc2C1` (centres undefined), for which the cytotoxicity at 70.5 h is -1.97%.

As to `COCc1ccccc1C(=O)NCC(c1c(F)cccc1F)N(C)C` (centres undefined), the cytotoxicity at 70.5 h came to 0.326%.

Turning to `NC(=O)C1CCN(CCc2ccc(NC(=O)C3CC3)cc2)CC1`, the cytotoxicity at 70.5 h was -3.12%.

With `COc1cc(C(=O)N2CC(Oc3ccccc3Cl)C2)ccn1`, the cytotoxicity at 70.5 h is -3.47%.

For `Cc1cc(C(=O)NCc2ccc(F)cc2)c2c(C3CCNC3)noc2n1` (centres undefined), the cytotoxicity at 70.5 h is -7.85%.

With `COCCN1C(=O)[C@H]2CC[C@@H]1CN(C(=O)Cc1ccc(O)c(Cl)c1)C2`, the cytotoxicity at 70.5 h came out at 16.7%.

As to `COc1cccc(-n2nnc(C(=O)N3CCC(C(N)=O)CC3)c2C)c1`, the cytotoxicity at 70.5 h was -8.91%.

In the case of `CCn1cc2c(n1)CN(Cc1nccs1)CC2COCC1CC1` (centres undefined), the cytotoxicity at 70.5 h was -11%.

For `COCC1COCCC12CCN(Cc1nccs1)CC2` (centres undefined), the cytotoxicity at 70.5 h was -5.6%.

`Cc1ccc2c(n1)N(CCN(C)C)CCN(C(=O)c1ccc[nH]1)C2`: the cytotoxicity at 70.5 h was determined as 0.599%.

For `CSc1ccc(CN(C(=O)c2cc(C)[nH]c(=O)c2)C2CC2)cc1`, the cytotoxicity at 70.5 h stood at 0.291%.

With `C/C(=C\c1ccco1)CN(C)C(C)Cc1ccccn1` (centres undefined), the cytotoxicity at 70.5 h came to 16%.

For `O=C(NC1CCN(c2ncccn2)CC1)c1cc2c([nH]c1=O)CCC2`, the cytotoxicity at 70.5 h is -10.7%.

On to `CO[C@@H]1CC[C@H]2[C@H]1OCCN2CC1CCOCC1`, for which the cytotoxicity at 70.5 h was -2.79%.

As to `CN1C(=O)C2(CCN(C(=O)c3ccccc3)CC2)c2cccc(F)c21`, the cytotoxicity at 70.5 h was determined as 0.835%.

Take `CNc1nc(CNC(=O)Nc2cccc(CC(F)(F)F)c2)cs1`: the cytotoxicity at 70.5 h was -4.82%.

`CCN(CCC(=O)OC)S(=O)(=O)c1cnc2c(c1)c(C)nn2C`: the cytotoxicity at 70.5 h was -4.3%.

With `COc1ccc(-c2n[nH]cc2CN(C)CCC2CCOCC2)cc1F`, the cytotoxicity at 70.5 h was -1.66%.

`Cc1ccc(CCc2nc(C3CCOC3)no2)o1` (centres undefined): the cytotoxicity at 70.5 h turned out to be 6.82%.

Take `COCC(=O)N[C@H](C)c1c(-c2ccc(OC)cc2)noc1C(=O)O`: the cytotoxicity at 70.5 h was -16.4%.

`Cc1noc(-c2cnc(NC3CC3)nc2-c2ccco2)c1C`: the cytotoxicity at 70.5 h was -14.9%.

`CN(C)c1ncccc1CNC(=O)N(Cc1ccccc1F)C1CC1`: the cytotoxicity at 70.5 h is -4.47%.

Take `CCN(C(=O)c1cccc2c1OCO2)c1ccccc1`: the cytotoxicity at 70.5 h was -4.98%.

For the compound `NC(=O)N1CCCC(C(=O)NCc2ccccc2OC(F)(F)F)C1` (centres undefined), the cytotoxicity at 70.5 h is -9.4%.

Regarding `COCc1cc(N2CCN(Cc3ccncc3)CC2)n2nccc2n1`, the cytotoxicity at 70.5 h was -1.74%.

As to `CCc1ncc(CN2CCOC(Cc3cccc(F)c3)C2)cn1` (centres undefined), the cytotoxicity at 70.5 h was -9.07%.

For the compound `CN1C(=O)COc2ccc(NC(=O)CCc3nc4cccnc4[nH]3)cc21`, the cytotoxicity at 70.5 h was -9.73%.

With `CC(=O)NC1CCN(c2cc(C3CCNCC3)nc(C)n2)C1` (centres undefined), the cytotoxicity at 70.5 h is -6.6%.

With `CC(NC(=O)c1cc2n(n1)CCCN(C(C)C)C2)c1cn2ccsc2n1` (centres undefined), the cytotoxicity at 70.5 h was -16.5%.
